Measurements published in the NIST ThermoML archive (doi:10.1021/acs.jced.8b00524).

Assay: xn = mol fraction of the nth substance listed
Settings: 100 kPa, Liquid; for viscosity: Concentric cylinders viscometry; for mass density: Vibrating tube method

CCCCOC(C)=O [butyl ethanoate] + CCCCCCCCO
Settings	mass density [kg/m3]	viscosity [mPa·s]
293.15 K, x1 = 0.0809	828.3	8.07
293.15 K, x1 = 0.1595	831.8	7.17
293.15 K, x1 = 0.2399	835.5	6.32
293.15 K, x1 = 0.3499	840.9	5.29
293.15 K, x1 = 0.4399	845.6	4.54
293.15 K, x1 = 0.5626	852.5	3.59
293.15 K, x1 = 0.6499	857.6	2.97
293.15 K, x1 = 0.7401	863.2	2.37
293.15 K, x1 = 0.8499	870.4	1.69
293.15 K, x1 = 0.9395	876.6	1.12
293.15 K, x1 = 1	881.1	0.732
298.15 K, x1 = 0.0809	824.6	6.69
298.15 K, x1 = 0.1595	827.9	5.9
298.15 K, x1 = 0.2399	831.5	5.19
298.15 K, x1 = 0.3499	836.7	4.32
298.15 K, x1 = 0.4399	841.3	3.7
298.15 K, x1 = 0.5626	847.9	2.93
298.15 K, x1 = 0.6499	853	2.43
298.15 K, x1 = 0.7401	858.4	1.96
298.15 K, x1 = 0.8499	865.5	1.43
298.15 K, x1 = 0.9395	871.6	0.99
298.15 K, x1 = 1	876	0.677
303.15 K, x1 = 0.0809	820.8	5.59
303.15 K, x1 = 0.1595	823.9	4.92
303.15 K, x1 = 0.2399	827.4	4.3
303.15 K, x1 = 0.3499	832.4	3.57
303.15 K, x1 = 0.4399	836.8	3.06
303.15 K, x1 = 0.5626	843.2	2.42
303.15 K, x1 = 0.6499	848.1	2.01
303.15 K, x1 = 0.7401	853.4	1.63
303.15 K, x1 = 0.8499	860.3	1.22
303.15 K, x1 = 0.9395	866.4	0.88
303.15 K, x1 = 1	870.9	0.628
308.15 K, x1 = 0.0809	817.1	4.72
308.15 K, x1 = 0.1595	820.1	4.15
308.15 K, x1 = 0.2399	823.4	3.61
308.15 K, x1 = 0.3499	828.1	2.99
308.15 K, x1 = 0.4399	832.3	2.56
308.15 K, x1 = 0.5626	838.5	2.05
308.15 K, x1 = 0.6499	843.2	1.73
308.15 K, x1 = 0.7401	848.4	1.42
308.15 K, x1 = 0.8499	855.3	1.08
308.15 K, x1 = 0.9395	861.2	0.79
308.15 K, x1 = 1	865.7	0.585
313.15 K, x1 = 0.0809	813.3	4.01
313.15 K, x1 = 0.1595	815.9	3.52
313.15 K, x1 = 0.2399	818.9	3.06
313.15 K, x1 = 0.3499	823.3	2.53
313.15 K, x1 = 0.4399	827.3	2.17
313.15 K, x1 = 0.5626	833.3	1.75
313.15 K, x1 = 0.6499	838	1.48
313.15 K, x1 = 0.7401	843.1	1.24
313.15 K, x1 = 0.8499	849.9	0.95
313.15 K, x1 = 0.9395	855.8	0.71
313.15 K, x1 = 1	860.5	0.546
318.15 K, x1 = 0.0809	809.4	3.44
318.15 K, x1 = 0.1595	811.9	3.01
318.15 K, x1 = 0.2399	814.6	2.62
318.15 K, x1 = 0.3499	818.8	2.17
318.15 K, x1 = 0.4399	822.6	1.87
318.15 K, x1 = 0.5626	828.4	1.51
318.15 K, x1 = 0.6499	832.9	1.3
318.15 K, x1 = 0.7401	838	1.08
318.15 K, x1 = 0.8499	844.7	0.84
318.15 K, x1 = 0.9395	850.7	0.65
318.15 K, x1 = 1	855.3	0.512
323.15 K, x1 = 0.0809	805.6	2.97
323.15 K, x1 = 0.1595	807.8	2.6
323.15 K, x1 = 0.2399	810.4	2.26
323.15 K, x1 = 0.3499	814.3	1.86
323.15 K, x1 = 0.4399	817.9	1.6
323.15 K, x1 = 0.5626	823.5	1.3
323.15 K, x1 = 0.6499	828	1.12
323.15 K, x1 = 0.7401	832.9	0.96
323.15 K, x1 = 0.8499	839.5	0.76
323.15 K, x1 = 0.9395	845.5	0.6
323.15 K, x1 = 1	850.1	0.485
